These are literature values, as cited in patent US20240261238A1, “METHOD OF TREATING DRUG RESISTANT EPILEPSY” (ICAHN SCHOOL OF MEDICINE AT MOUNT SINAI, priority 2021, published 2024).

The Ki is the dissociation constant of the complex between target and ligand, obtained from inhibition or displacement.

The conditions of series [1]: 0.5 mg/kg intravenous infusion given over 40 minutes.
The conditions of series [2]: intranasal for treatment of pain vs intravenous ketamine studies in depression.
For series [3] the following is noted: intranasal, total dose.
The target in another series is NMDA receptors. Particulars: read-out: Ki for binding to NMDA receptors.
The conditions of series [4]: iontophoretic patch, 33 men and women.

For `CNC1(c2ccccc2Cl)CCCCC1=O` (racemic) [ketamine, 2-(2-chlorophenyl)-2-(methylamino)-cyclohexanone], the “serious adverse events caused by IV administration” value is recorded as “No serious adverse events”. For the same compound, the “time by which side effects typically abate post-infusion” value (IV, euphoria, elevated BP, increased libido, perceptual disturbances) was at most 80 min. For the same compound, in series [1], the “duration of improvements in depression” value is reported as “up to 1 week”, the serious adverse events entry is reported as “no serious adverse events” and the “time to improvements in depression post-injection” value was at most 2 h. The “intranasal plasma levels lower than in intravenous studies” value in series [2] is listed as 3-4 fold. Also, in series [3], the “dose at which mild adverse effects (dysphoria and/or hallucinations) can occur” value is recorded as “greater than 50 mg” and the “dose usually required for mild adverse effects (dysphoria and/or hallucinations)” value is given as “greater than 100 mg”.

As for `CN[C@@]1(c2ccccc2Cl)CCCCC1=O` [R(−)], on NMDA receptors, the Ki was 1.1 µM.

For the compound `CN[C@]1(c2ccccc2Cl)CCCCC1=O` [S(+)-ketamine], the Ki at NMDA receptors is 3.2 µM. Besides, the “potency relative to racemic mixture of ketamine” value in series [4] was “two times more potent”.
